Consider three substances from patent publication US9603890B2, “Methods for increasing the selective efficacy of gene therapy using CAR peptide and heparan-sulfate mediated macropinocytosis” (Vascular Biosciences, priority 2012, dated 2017).

The nature of series [1]: Cell internalization and tissue penetration of truncated CAR versus CAR. In kind it is cell-based.
Series [2] has as its system rats with severe occlusive pulmonary hypertension induced by Sugen injection followed by hypoxia. Nature of the series: MFN2 adenovirus gene therapy alone or co-administered with CAR peptide in severe occlusive PAH rats. In kind it is in vivo, rat. From the text:
CAR peptide was able to exert its disease-selective adjuvant properties by allowing enhanced viral delivery and uptake of gene product (MFN2) in an animal model of severe occlusive PAH in rats. (A) Figure showing the effect of MFN2 GTx administered alone when compared to control and diseased animal not given MFN2 Gtx. Statistical significance was examined using ANOVA (see Supplement for further statistical information). (B) Change in mitofusion-2 mRNA levels relative to control. […] (D) mPAP (mmHg) levels in Sugen hypoxia rats.
Adenoviruses were used as viral delivery vectors to incorporate cDNA inserts of MFN2 into rats with severe occlusive pulmonary hypertension induced by Sugen injection followed by hypoxia (FIG. 1).
The MFN2 gene encodes the mitofusion-2 protein, which is a mitochondrial membrane protein that participates in mitochondrial fusion. Mitofusion-2 contributes to the maintenance and operation of the mitochondrial network, and is involved in the regulation of vascular smooth muscle cell (VSMC) proliferation. […] Successful delivery and uptake of the MFN2 gene via adenovirus delivery vector into diseased cells results in increased expression of the mitofusion-2 protein, regulation of VSMC proliferation, and a subsequent decrease in disease indicators. […]

For series [3], the system named is Chinese hamster ovary cells. The following applies: cited from earlier work.
Series [4] relates to animal models of pulmonary arterial hypertension (PAH). To be noted: cited from earlier work.
Series [5] has as its target T1, Heparinase I (EC 4.2.2.7) (Pedobacter heparinus, UniProt Q05819).
T1 sequence (Q05819 22-384): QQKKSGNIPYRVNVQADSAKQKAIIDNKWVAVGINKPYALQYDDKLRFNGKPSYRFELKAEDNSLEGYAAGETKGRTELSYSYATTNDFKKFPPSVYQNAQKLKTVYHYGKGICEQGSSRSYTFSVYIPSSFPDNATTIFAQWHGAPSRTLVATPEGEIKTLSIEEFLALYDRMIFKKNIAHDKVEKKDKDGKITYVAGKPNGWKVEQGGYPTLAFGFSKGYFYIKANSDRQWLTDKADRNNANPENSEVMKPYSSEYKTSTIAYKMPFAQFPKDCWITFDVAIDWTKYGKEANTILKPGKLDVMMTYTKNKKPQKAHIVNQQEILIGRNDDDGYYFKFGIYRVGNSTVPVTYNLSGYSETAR
The following applies: heparan sulfate moiety as substrate; cited from earlier work.

Series [6] deals with T2, Heparanase (EC 3.2.1.166) (Homo sapiens, UniProt Q9Y251).
T2 sequence (Q9Y251 158-543 limits assumed): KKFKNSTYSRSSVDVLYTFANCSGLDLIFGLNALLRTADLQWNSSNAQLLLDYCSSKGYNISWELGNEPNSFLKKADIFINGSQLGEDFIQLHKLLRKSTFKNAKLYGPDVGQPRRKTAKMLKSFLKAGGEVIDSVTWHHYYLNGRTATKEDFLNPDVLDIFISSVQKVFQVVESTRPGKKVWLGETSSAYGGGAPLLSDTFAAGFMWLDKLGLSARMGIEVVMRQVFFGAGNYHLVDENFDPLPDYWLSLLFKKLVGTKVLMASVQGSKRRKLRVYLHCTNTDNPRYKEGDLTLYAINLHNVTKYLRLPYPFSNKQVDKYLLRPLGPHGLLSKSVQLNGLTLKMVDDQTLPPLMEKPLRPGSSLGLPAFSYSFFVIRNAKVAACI
T2 sequence (Q9Y251 36-109 limits assumed): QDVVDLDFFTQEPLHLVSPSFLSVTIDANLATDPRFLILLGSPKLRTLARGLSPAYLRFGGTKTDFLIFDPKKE
To be noted: heparan sulfate moiety as substrate; cited from earlier work.

Read-outs that look alike come from different tables or passages of the source. Where no end group is shown, it is not given here.

Take CARSKNK [tCAR, truncated form of CAR]: the “potency for cell internalization and tissue penetration versus parent peptide CAR” value in series [1] was “more potent”.
For “CARSKNKDC (also: cyclic, type not given here)”, the “increase in gene therapy transfected gene expression” value in series [2] was 7 ×. In addition, the “binding of CAR to Chinese hamster ovary cells” value is “greatly reduced” in series [3] (cells treated with heparinase I and III); “greatly reduced” in series [3] (cells treated with heparinase I). In addition, the “increase in selective vasodilation” value in series [4] (CAR co-administered with vasodilators) is reported as “approximately 2 ×”. For the same substance, the “increase in co-administered drug concentration” value in series [4] (in vivo) is recorded as 2 ×.
As to “2-O-sulfo-α-L-iduronic acid-2-deoxy-2-acetamido-α-D-glucopyranosyl [IdoA2S-GlcNS]”, in series [5], the “Heparinase I cleavage (EC 4.2.2.7)” value is reported as “Yes”. Moreover, the “Heparanase cleavage (EC 3.2.1.166)” value in series [6] is “No”.
